Series [1] can be described thus: in vivo. As to conditions: male, Sprague-Dawley, rat, sc, 20 mg/kg.
Protocol: (§1) Four weeks after diabetes induction, three control or three STZ rats were used for the pharmacokinetics (PK) and the tissue distribution study. To this aim, rats received a single dose of UPARANT succinate dissolved in PBS (vehicle) at 20 mg/kg via subcutaneous injection according to a previous study.22 To investigate a possible therapeutic role of UPARANT, the drug was administered at 1 or 8 mg/kg daily for 5 days in 15 rats for each concentration used. […] Rats were killed with 65 mg/kg pentobarbital. Blood was collected in EDTA tubes to then isolate plasma by centrifugation and kidneys were removed.
(§2) PK and UPARANT tissue distribution were as previously described.21 Briefly, for plasma PK, a volume of 0.2 mL blood was extracted at fixed time intervals (0.25, 0.5, 1, 2, 4, 6, 8, 12, 16 and 24 hours after dose) from the femoral vein. Blood was centrifuged (12 000 g for 20 minutes) and plasma was treated with 1% formic acid in methanol. Samples were stored at −80°C. The animals used for the PK study were killed at 24 hours. Kidneys and livers were dissected and processed with 1% formic acid in methanol. The concentration of UPARANT was evaluated via LC‐MS/MS.
The conditions of series [2]: male, Sprague-Dawley, rat, in vivo, sc, 20 mg/kg, 24 h.
Protocol: as §1, §2
The nature of series [3]: in vivo. As to conditions: male, Sprague-Dawley, rat, sc, 20 mg/kg. The source holds these as a separate data set.
Protocol: (§3) Four weeks after diabetes induction, three control or three STZ rats were used for the pharmacokinetics (PK) and the tissue distribution study. To this aim, rats received a single dose of UPARANT succinate dissolved in PBS (vehicle) at 20 mg/kg via subcutaneous injection according to a previous study.22 To investigate a possible therapeutic role of UPARANT, the drug was administered at 1 or 8 mg/kg daily for 5 days in 15 rats for each concentration used.
(§4) PK and UPARANT tissue distribution were as previously described.21 Briefly, for plasma PK, a volume of 0.2 mL blood was extracted at fixed time intervals (0.25, 0.5, 1, 2, 4, 6, 8, 12, 16 and 24 hours after dose) from the femoral vein. Blood was centrifuged (12 000 g for 20 minutes) and plasma was treated with 1% formic acid in methanol. Samples were stored at −80°C. The animals used for the PK study were killed at 24 hours. […] The concentration of UPARANT was evaluated via LC‐MS/MS.
(§5) A two phase model equation Ct = C0(e^-kelim^ t-e^-kabs^ t) with first order kinetics (absorption and elimination) was used to evaluate the kinetic parameters. Both C0 corresponding to the plasma concentration extrapolated at t=0 from the elimination phase and kelim and kabs, elimination and absorption kinetic parameters, were determined by best fit to the equation of the averaged time point concentrations. The terminal half-life t1/2 corresponding to 0.693/kelim and time tmax at the maximum plasma concentration Cmax were determined from the first derivative equal zero of the kinetic equation. The AUCinf, area under the concentration curve versus time from 0 to infinity was calculated by the integral of the kinetic equation.
The conditions of series [4]: rat, in vivo, sc, 20 mg/kg.
Protocol: as §3, §4, §5

Like-named read-outs stand apart in the source and are kept apart here. Non-standard residues stand in square brackets, D forms with d. Residues, ends and D or L forms follow the SMILES beside them. αMeF = C[C@](N)(Cc1ccccc1)C(=O)O; Aib = CC(C)(N)C(=O)O

For `CC(=O)N[C@@H](CCCNC(=N)N)C(=O)NC(C)(C)C(=O)N[C@@H](CCCNC(=N)N)C(=O)N[C@@](C)(Cc1ccccc1)C(N)=O` [UPARANT, Ac‐L‐Arg‐Aib‐L‐Arg‐L‐Cα(Me)PheNH2] (Ac-R[Aib]R[αMeF]-NH2), in series [1] (concentration of UPARANT in the kidney), the tissue level at time at 24 h was determined as 45900 ± 3600 ng/g. For the same molecule, the tissue level at time at 24 h in series [1] (concentration of UPARANT in the liver) came out at 21100 ± 2400 ng/g. In series [2], the “concentration of UPARANT in the kidney” value was determined as 28.2 ± 4.3 µg/g and the “concentration of UPARANT in the liver” value turned out to be 20.4 ± 7.5 µg/g. For the same molecule, the half-life in series [3] is 2.2 h. For the same molecule, the AUC(0-inf) in series [3] (AUCinf) came to 15900 ng·h/mL. The same molecule gave a Cmax in series [3] (Cmax) of 2600 ng/mL. The tmax in series [3] (tmax) came to 2.3 h. In series [4] (male, Sprague-Dawley), this molecule displayed an AUCinf of 16100 ng·h/mL, a Cmax of 2300 ng/mL and a tmax of 2.2 h. For the same molecule, in series [4], the kabs is 0.6 ± 0.2 h⁻¹ and the t1/2 came out at 2.2 h.

One may read the half-life as the time needed for the level to fall by half in the phase considered. Low values mean rapid decline, high ones slow decline. The term AUC(0-inf) denotes total exposure, with the tail of the curve extrapolated. A low value points to less exposure. For orientation: Cmax means the peak of the concentration-time curve.

Source of the values: publication PMC6349167, “Inhibiting the urokinase‐type plasminogen activator receptor system recovers STZ‐induced diabetic nephropathy” (Journal of Cellular and Molecular Medicine, 2018).
